For experiment [1], the target named is Sodium-dependent dopamine transporter (Homo sapiens, UniProt Q01959).
For experiment [2], the target named is T1, 5-hydroxytryptamine receptor 1A (Homo sapiens, UniProt P08908).
T1 sequence (P08908 whole entry): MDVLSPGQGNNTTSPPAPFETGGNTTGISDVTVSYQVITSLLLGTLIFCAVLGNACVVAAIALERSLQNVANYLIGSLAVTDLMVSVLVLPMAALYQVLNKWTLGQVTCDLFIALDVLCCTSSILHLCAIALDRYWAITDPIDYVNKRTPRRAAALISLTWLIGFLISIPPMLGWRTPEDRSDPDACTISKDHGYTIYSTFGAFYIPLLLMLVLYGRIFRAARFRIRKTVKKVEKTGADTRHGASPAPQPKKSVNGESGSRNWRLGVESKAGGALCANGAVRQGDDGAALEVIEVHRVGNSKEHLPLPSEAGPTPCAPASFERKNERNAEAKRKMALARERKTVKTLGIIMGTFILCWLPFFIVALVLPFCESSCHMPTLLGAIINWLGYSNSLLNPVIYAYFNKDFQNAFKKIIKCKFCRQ
In kind it is functional, cell-based.

Experiment [3] deals with T2, Beta-2 adrenergic receptor (Homo sapiens, UniProt P07550). In kind it is functional, cell-based.
The target of experiment [4] is T3, Alpha-2A adrenergic receptor (Homo sapiens, UniProt P08913).
T3 sequence (P08913 whole entry): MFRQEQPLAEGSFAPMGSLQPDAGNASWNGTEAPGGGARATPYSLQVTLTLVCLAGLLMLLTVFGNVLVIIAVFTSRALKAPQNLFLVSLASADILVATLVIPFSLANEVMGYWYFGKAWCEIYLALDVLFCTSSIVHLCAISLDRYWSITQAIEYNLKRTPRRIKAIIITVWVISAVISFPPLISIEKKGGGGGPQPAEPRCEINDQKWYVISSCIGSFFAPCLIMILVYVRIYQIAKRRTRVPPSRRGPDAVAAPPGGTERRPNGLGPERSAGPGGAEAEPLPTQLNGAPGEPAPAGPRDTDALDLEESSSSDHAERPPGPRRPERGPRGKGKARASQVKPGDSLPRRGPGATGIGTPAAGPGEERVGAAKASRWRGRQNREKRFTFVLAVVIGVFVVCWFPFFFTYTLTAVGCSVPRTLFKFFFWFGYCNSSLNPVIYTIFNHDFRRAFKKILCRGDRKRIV
In kind it is functional, cell-based.

Experiment [5] has as its target T2, Beta-2 adrenergic receptor.
A further experiment deals with T4, Androgen receptor (Homo sapiens, UniProt P10275).
T4 sequence (P10275 whole entry): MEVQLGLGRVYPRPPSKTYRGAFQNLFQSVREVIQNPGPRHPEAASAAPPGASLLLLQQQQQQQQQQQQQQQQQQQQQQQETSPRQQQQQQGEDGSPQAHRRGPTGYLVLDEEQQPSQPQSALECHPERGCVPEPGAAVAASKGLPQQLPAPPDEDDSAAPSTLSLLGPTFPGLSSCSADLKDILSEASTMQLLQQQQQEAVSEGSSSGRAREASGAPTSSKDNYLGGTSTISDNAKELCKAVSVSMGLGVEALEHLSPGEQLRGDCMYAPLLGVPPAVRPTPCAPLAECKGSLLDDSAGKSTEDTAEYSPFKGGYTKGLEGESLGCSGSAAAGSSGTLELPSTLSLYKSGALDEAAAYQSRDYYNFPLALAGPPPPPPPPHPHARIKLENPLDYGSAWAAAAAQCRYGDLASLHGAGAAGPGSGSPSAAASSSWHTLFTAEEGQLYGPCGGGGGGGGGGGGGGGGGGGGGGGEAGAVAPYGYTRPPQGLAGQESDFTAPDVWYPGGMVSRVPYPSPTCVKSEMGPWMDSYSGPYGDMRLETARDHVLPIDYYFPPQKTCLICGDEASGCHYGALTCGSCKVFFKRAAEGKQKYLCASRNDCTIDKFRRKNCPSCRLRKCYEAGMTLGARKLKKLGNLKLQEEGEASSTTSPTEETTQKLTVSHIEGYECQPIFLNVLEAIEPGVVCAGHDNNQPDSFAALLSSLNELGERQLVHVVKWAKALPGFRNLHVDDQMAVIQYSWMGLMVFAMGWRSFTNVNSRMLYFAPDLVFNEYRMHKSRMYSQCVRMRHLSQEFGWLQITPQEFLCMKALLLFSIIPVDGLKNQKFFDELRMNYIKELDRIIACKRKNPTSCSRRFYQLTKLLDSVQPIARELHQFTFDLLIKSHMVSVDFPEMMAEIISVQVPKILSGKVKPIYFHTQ

Experiment [6] has as its target Neuronal acetylcholine receptor subunit alpha-4 (Homo sapiens, UniProt P43681).
Experiment [7] has as its target T5, Alpha-1A adrenergic receptor (Homo sapiens, UniProt P35348).
T5 sequence (P35348 whole entry): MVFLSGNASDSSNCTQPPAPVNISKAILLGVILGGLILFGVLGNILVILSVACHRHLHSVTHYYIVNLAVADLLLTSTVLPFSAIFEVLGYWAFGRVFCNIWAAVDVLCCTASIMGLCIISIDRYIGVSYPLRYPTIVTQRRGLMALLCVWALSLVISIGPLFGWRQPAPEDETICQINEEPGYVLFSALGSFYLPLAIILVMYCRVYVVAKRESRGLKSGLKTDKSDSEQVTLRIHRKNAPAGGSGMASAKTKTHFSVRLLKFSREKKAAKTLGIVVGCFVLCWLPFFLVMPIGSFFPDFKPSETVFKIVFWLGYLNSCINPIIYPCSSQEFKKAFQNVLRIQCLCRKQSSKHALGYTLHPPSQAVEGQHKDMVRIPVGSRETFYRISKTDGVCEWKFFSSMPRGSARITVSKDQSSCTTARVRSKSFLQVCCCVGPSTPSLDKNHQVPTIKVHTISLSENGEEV
In kind it is functional, cell-based.

Experiment [8] concerns the target T6, Alpha-2C adrenergic receptor (Homo sapiens, UniProt P18825).
T6 sequence (P18825 whole entry): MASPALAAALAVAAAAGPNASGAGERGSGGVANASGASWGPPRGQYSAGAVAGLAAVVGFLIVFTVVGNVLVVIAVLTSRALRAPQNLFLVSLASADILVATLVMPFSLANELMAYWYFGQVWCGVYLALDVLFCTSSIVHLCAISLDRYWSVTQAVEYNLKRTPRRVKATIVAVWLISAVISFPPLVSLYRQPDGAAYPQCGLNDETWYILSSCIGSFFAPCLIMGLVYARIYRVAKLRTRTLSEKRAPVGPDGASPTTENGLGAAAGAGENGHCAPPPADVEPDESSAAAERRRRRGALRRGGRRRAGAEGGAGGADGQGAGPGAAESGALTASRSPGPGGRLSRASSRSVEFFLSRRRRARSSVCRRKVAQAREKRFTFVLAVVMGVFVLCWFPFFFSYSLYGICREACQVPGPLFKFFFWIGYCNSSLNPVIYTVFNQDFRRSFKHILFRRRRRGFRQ
In kind it is functional.

SMILES strings stand for the structures. Bounds are passed on as bounds.
Note: assay procedure not described here.

Chain of Neuronal acetylcholine receptor subunit alpha-4 (P43681 whole entry): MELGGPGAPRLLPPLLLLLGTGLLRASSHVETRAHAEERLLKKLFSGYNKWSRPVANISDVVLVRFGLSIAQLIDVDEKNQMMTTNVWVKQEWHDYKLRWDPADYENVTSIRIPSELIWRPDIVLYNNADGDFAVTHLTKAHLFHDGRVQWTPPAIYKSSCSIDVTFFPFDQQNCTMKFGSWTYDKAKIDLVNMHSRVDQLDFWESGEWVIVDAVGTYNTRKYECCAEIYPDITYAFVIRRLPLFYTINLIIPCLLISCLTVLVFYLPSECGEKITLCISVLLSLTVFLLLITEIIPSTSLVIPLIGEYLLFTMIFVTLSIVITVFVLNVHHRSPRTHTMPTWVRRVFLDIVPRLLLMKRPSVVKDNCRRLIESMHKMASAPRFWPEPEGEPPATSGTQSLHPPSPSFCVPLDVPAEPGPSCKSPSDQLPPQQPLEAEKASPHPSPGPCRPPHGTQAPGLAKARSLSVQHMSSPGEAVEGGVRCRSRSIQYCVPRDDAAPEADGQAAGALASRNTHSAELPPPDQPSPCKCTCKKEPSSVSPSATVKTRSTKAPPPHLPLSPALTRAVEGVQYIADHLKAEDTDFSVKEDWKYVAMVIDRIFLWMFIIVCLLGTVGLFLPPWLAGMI
Chain of Sodium-dependent dopamine transporter (Q01959 whole entry): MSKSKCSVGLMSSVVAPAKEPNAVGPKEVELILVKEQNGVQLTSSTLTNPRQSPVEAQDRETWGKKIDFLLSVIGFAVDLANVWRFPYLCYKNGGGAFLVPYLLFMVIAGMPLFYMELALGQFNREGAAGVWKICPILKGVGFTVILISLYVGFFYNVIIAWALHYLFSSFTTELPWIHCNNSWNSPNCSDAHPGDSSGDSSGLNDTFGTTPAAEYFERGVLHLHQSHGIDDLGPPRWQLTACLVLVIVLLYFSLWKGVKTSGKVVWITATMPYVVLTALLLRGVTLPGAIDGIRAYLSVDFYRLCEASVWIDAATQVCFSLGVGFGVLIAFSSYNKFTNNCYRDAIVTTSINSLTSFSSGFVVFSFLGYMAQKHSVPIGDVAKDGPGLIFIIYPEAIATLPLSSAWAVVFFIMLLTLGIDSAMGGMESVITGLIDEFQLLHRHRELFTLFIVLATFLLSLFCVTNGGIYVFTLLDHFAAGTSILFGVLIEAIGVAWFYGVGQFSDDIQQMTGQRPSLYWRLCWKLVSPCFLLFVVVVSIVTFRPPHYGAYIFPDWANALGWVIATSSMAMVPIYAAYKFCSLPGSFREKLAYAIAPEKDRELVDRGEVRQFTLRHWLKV
T2 sequence (P07550 whole entry): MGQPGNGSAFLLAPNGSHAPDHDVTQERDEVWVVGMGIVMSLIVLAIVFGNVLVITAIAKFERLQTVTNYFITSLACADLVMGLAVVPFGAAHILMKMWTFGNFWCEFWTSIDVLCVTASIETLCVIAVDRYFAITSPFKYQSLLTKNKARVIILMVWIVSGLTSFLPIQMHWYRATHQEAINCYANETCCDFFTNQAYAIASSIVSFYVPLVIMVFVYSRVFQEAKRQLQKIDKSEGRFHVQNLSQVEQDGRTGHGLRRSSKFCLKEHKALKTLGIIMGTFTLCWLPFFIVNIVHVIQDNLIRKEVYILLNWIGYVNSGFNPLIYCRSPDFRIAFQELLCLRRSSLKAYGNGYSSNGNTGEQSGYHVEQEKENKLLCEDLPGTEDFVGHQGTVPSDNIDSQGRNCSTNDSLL

As a reminder, the AC50 is the concentration at which the activity in the assay is half-maximal. High values mean activity only at high concentration, low ones activity at low concentration. Turning to `Cc1ccc(C)c(OCCCC(C)(C)C(=O)O)c1` [GEMFIBROZIL], the AC50 is > 10 µM in experiment [1]; > 10 µM in experiment [2]; > 30 µM in experiment [3]; > 10 µM in [4]; > 10 µM in experiment [5]; > 30 µM at Androgen receptor. Also, the AC50 in experiment [6] is > 10 µM; in [7], > 30 µM; in experiment [8], > 10 µM.

For `O=C(O)Cc1ccccc1Nc1c(Cl)cccc1Cl` [DICLOFENAC], the half-maximal activity concentration (AC50) is > 30 µM in experiment [1]; > 10 µM in experiment [2]; > 30 µM in [3]; > 10 µM in experiment [4]; > 10 µM in experiment [5]; > 3 µM at Androgen receptor. In addition, the concentration at half-maximal activity (AC50) in experiment [6] was > 10 µM; in experiment [7], > 30 µM; in experiment [8], > 10 µM.

For `CC(C)NC(=N)NC(=N)Nc1ccc(Cl)c(Cl)c1` [CHLORPROGUANIL], the AC50 in experiment [2] was > 30 µM; in experiment [3] it was > 30 µM; in experiment [4], > 30 µM; at Androgen receptor it was > 30 µM; in experiment [7], > 30 µM; in [8], 8.9 µM.

Regarding `CCCCC(CC)CN1CN(CC(CC)CCCC)CC(C)(N)C1` (stereo not drawn) [HEXETIDINE], the concentration at half-maximal activity (AC50) on Androgen receptor is > 30 µM.

Regarding `CCNC(=O)/C=C(C)/C=C/C=C(C)/C=C/c1c(C)cc(OC)c(C)c1C` [MOTRETINIDE], the half-maximal activity concentration (AC50) on Androgen receptor is > 30 µM.

As for `COc1ccccc1OC1(C)OC(=O)c2ccccc2O1` (stereo not drawn) [GUAIMESAL], the AC50 (in experiment [1]; in [5]; on Androgen receptor; in experiment [6]) was > 30 µM in each case.

As to `CC[C@@H]1C[C@]1(NC(=O)[C@@H]1C[C@@H]2CN1C(=O)[C@H](C(C)(C)C)NC(=O)OCC(C)(C)CCCCc1cccc3c1CN(C3)C(=O)O2)C(=O)NS(=O)(=O)C1CC1`, the AC50 at Androgen receptor was > 30 µM.

For `COC(=O)[C@@H](N)Cc1ccc(O)c(O)c1` [MELEVODOPA], the AC50 at Androgen receptor is > 30 µM.

Consider `C[C@H]1O[C@@H](O[C@H]2CC[C@@]3(C)[C@H](CC[C@@H]4[C@@H]3C[C@@H](O)[C@]3(C)[C@@H](C5=CC(=O)OC5)CC[C@]43O)C2)C[C@H](O)[C@@H]1O[C@H]1C[C@H](O)[C@H](O[C@H]2C[C@H](O)[C@H](O[C@@H]3O[C@H](CO)[C@@H](O)[C@H](O)[C@H]3O)[C@@H](C)O2)[C@@H](C)O1` [DESLANOSIDE], for which the concentration at half-maximal activity (AC50) on Androgen receptor was > 30 µM.

For `C=C(C)CNc1ccc(C(C)C(=O)O)cc1` (stereo not drawn) [ALMINOPROFEN], the AC50 at Androgen receptor was > 30 µM.

As to `C[N+](C)(C)CCOP(=O)(O)OP(=O)([O-])OC[C@H]1O[C@@H](n2ccc(N)nc2=O)[C@H](O)[C@@H]1O` [CITICOLINE], the concentration at half-maximal activity (AC50) (in experiment [3]; in experiment [4]; on Androgen receptor; in [7]; in [8]) was > 30 µM in each case.

In turn, `C#C[C@]1(O)C=C[C@H]2[C@@H]3CCC4=CC(=O)CC[C@@H]4[C@H]3CC[C@@]21CC` [GESTODENE] came in with an AC50 at Androgen receptor of 0.003 µM.

As for `CN[C@@H]1[C@H](O[C@H]2[C@H](O[C@H]3[C@H](O)[C@@H](O)[C@H](NC(=N)N)[C@@H](O)[C@@H]3NC(=N)N)O[C@@H](C)[C@]2(O)CO)O[C@@H](CO)[C@H](O)[C@H]1O` [DIHYDROSTREPTOMYCIN], the AC50 at Androgen receptor is > 30 µM.

Take `Nc1cccc2c1C(=O)N(C1CCC(=O)NC1=O)C2=O` (stereo not drawn) [POMALIDOMIDE]: on Androgen receptor, the AC50 was > 30 µM.

As for `CN(C)c1ccc(O)c2c1C[C@H]1C[C@H]3[C@H](N(C)C)C(O)=C(C(N)=O)C(=O)[C@@]3(O)C(O)=C1C2=O` [MINOCYCLINE], the concentration at half-maximal activity (AC50) at Androgen receptor is > 30 µM.

The values above are taken from ChEMBL document CHEMBL5291721, “A preclinical secondary pharmacology resource illuminates target-adverse drug reaction associations of marketed drugs” (Nat Commun, 2023).
